The assay addresses T1, FAAH (Rattus norvegicus, UniProt P97612).
T1 construct: Frozen brains (without cerebellum) from Wistar rats were used; from tissue; host or cells: Wistar rat brain (without cerebellum), washed membrane pellets
T1 sequence (P97612 1-579): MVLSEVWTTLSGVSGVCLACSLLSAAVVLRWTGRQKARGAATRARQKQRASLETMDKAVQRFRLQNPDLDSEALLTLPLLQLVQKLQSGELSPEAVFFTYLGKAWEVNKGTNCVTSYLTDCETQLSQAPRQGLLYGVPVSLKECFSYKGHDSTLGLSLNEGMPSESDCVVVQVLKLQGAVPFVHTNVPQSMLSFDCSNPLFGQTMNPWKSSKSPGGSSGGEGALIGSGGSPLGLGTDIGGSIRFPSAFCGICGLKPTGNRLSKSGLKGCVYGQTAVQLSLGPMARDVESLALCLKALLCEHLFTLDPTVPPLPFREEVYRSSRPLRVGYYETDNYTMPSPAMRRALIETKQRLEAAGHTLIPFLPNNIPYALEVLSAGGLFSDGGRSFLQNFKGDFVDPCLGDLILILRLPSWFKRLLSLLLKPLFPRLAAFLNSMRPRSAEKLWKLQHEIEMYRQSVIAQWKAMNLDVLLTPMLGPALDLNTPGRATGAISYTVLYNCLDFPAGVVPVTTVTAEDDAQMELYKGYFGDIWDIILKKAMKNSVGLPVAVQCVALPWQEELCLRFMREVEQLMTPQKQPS
Description: In vitro FAAH activity in rat brain membranes, 3H-AEA substrate, % of control. The assay is classed as biochemical, Wistar rats. The note with it: low value = strong inhibitor; for In Vitro FAAH activity, 10 uM: 10 uM test compound; for In Vitro FAAH activity, 100 nM: 100 nM test compound. The protocol:
3. Biological Efficacy of Compounds of the Invention The in vitro test was performed according to the protocol described below. The controls for both in vitro and in vivo were the reaction mix minus the test compounds. Therefore, a low value in Table 1 below for the test compounds indicates a strong inhibitor.
The in vitro pharmaceutical FAAH activity was determined according to the following method:
Frozen brains (without cerebellum) from Wistar rats were used, and each brain was homogenized in 15 ml 1 mM MgCL2, […] HEPES pH 7.0 with Potter Elvejhem (8 strokes at 500 rpm). Homogenates were centrifuged for 20 min at 36000 g at 4° C. (Beckman, 70Ti rotor). Pellets were resuspended in 15 ml of the same buffer and centrifuged under the same conditions. Pellets were resuspended in 15 ml of the same buffer and incubated for 15 min at 37° C. after which they were centrifuged for 20 min at 36000 g at 4° C. Each pellet was then resuspended in 15 ml 3 mM MgCl2, 1 mM EDTA, 50 mM Tris pH 7.4 and protein determined with BioRad Protein Assay (BioRad) using a standard curve of BSA (50-250 μg/ml). The membrane suspensions were aliquoted and stored at −80° C.
The FAAH activity was determined using AEA (labelled with 3H in the ethanolamine part of the molecule) as substrate and measuring the 3H-ethanolamine formed. Reaction mix (total volume of 200 up contained: 2 μM AEA (2 μM AEA+5 nM 3H-AEA), 0.1% fatty acid free BSA, 5 μg protein, in 1 mM EDTA, 10 mM Tris pH 7.6 and 10 μM or 0.1 μM compounds. Stock solutions of the compounds to test (10 mM) were prepared in 100% DMSO and the DMSO concentration in the assay was 0.1%. After a 15 min preincubation period at 37° C., reaction was started by the addition of the substrate solution ([…]). Reaction was carried out for 10 min before termination by the addition of 400 μl activated charcoal suspension (8 g charcoal in 32 ml 0.5 M HCl in continuous agitation). After a 30 min incubation period at room temperature with agitation, charcoal was sedimented by centrifugation in microfuge (10 min at 13000 rpm). 200 μl of the supernatant were added to 800 μl Optiphase Supermix scintillation cocktail previously distributed in 24-well plates. Counts per minute (cpm) were determined in Microbeta TriLux scintillation counter (10 min counting or until s=2).
In each assay blanks (no protein, usually below 200 cpm) and controls (no compound) were present. The results are reported in Table 1 as % of control after blank subtraction.

The values that follow come from patent publication US9353082B2, “Pharmaceutical compounds” (BIAL—PORTELA & CA, S.A., priority 2008, dated 2016).

Counter-ions that a name gives are not always drawn.

`O=C(N1CCOCC1)n1ccnc1` [Compound 1, (1H-imidazol-1-yl)(morpholino)methanone]: the “In Vitro FAAH activity, 10 uM” value is 62.6 % of control.
Turning to `CN(C(=O)n1ccnc1)c1ccccc1` [Compound 2, N-methyl-N-phenyl-1H-imidazole-1-carboxamide], the “In Vitro FAAH activity, 10 uM” value is given as 11.7 % of control.
Take `O=C(N1CCOCC1)n1cnc(-c2ccccc2)c1` [Compound 3, morpholino(4-phenyl-1H-imidazol-1-yl)methanone]: the “In Vitro FAAH activity, 10 uM” value is given as 4.8 % of control.
For `O=C(Nc1ccccc1)n1ccc(-c2ccccc2)n1` [Compound 5, N,3-diphenyl-1H-pyrazole-1-carboxamide], the “In Vitro FAAH activity, 10 uM” value is listed as 91.3 % of control.
On the same count and under the same terms, the value for `COc1ccc(NC(=O)n2ccc(-c3ccccc3)n2)cc1` [Compound 6, N-(4-methoxyphenyl)-3-phenyl-1H-pyrazole-1-carboxamide] was 91.1 % of control.
Regarding `CN(C(=O)n1cncn1)c1ccccc1` [Compound 7, N-methyl-N-phenyl-1H-1,2,4-triazole-1-carboxamide], the “In Vitro FAAH activity, 100 nM” value is 17 % of control and the “In Vitro FAAH activity, 10 uM” value is given as 0 % of control.
As to `CN(C(=O)n1cccn1)c1ccccc1` [Compound 8, N-methyl-N-phenyl-1H-pyrazole-1-carboxamide], the “In Vitro FAAH activity, 10 uM” value is listed as 13.2 % of control.
On the same count and under the same terms, the value for `O=C(Nc1ccccc1)n1cccn1` [Compound 9, N-phenyl-1H-pyrazole-1-carboxamide] was 78.6 % of control.
Regarding `O=C(Nc1ccc(Oc2ccccc2)cc1)n1ccc(-c2ccccc2)n1` [Compound 10, N-(4-phenoxyphenyl)-3-phenyl-1H-pyrazole-1-carboxamide], the “In Vitro FAAH activity, 10 uM” value was 55 % of control.
Regarding `O=C(Nc1ccc(OCc2ccccc2)cc1)n1ccc(-c2ccccc2)n1` [Compound 11, N-(4-(benzyloxy)phenyl)-3-phenyl-1H-pyrazole-1-carboxamide], the “In Vitro FAAH activity, 10 uM” value is 82.6 % of control.
As for `CN(C(=O)n1ccc(-c2ccccc2)n1)c1ccccc1` [Compound 12, N-methyl-N,3-diphenyl-1H-pyrazole-1-carboxamide], the “In Vitro FAAH activity, 10 uM” value was 86 % of control.
Turning to `O=C(N1CCOCC1)n1ccc(-c2ccccc2)n1` [Compound 13, morpholino(3-phenyl-1H-pyrazol-1-yl)methanone], the “In Vitro FAAH activity, 10 uM” value is on record as 89.7 % of control.
As for `O=C(Nc1ccc(-c2ccccc2)cc1)n1ccc(-c2ccccc2)n1` [Compound 15, N-(biphenyl-4-yl)-3-phenyl-1H-pyrazole-1-carboxamide], the “In Vitro FAAH activity, 100 nM” value is 103.8 % of control and the “In Vitro FAAH activity, 10 uM” value is given as 66.9 % of control.
With `COc1ccc(N(C)C(=O)n2cnc(-c3ccccc3)c2)cc1` [Compound 17, N-(4-methoxyphenyl)-N-methyl-4-phenyl-1H-imidazole-1-carboxamide], the “In Vitro FAAH activity, 10 uM” value is on record as 65 % of control.
`CN(C(=O)n1cnc2ccccc21)c1ccccc1` [Compound 18, N-methyl-N-phenyl-1H-benzo[d]imidazole-1-carboxamide]: the “In Vitro FAAH activity, 10 uM” value is 67.9 % of control.
For `O=C(Nc1ccccc1)n1ccc(-c2ccc(-c3ccccc3)cc2)n1` [Compound 20, 3-(biphenyl-4-yl)-N-phenyl-1H-pyrazole-1-carboxamide], the “In Vitro FAAH activity, 10 uM” value is 97.3 % of control.
As for `O=C(N1CCOCC1)n1ccc(-c2cccnc2)n1` [Compound 21, morpholino(3-(pyridin-3-yl)-1H-pyrazol-1-yl)methanone hydrochloride], the “In Vitro FAAH activity, 10 uM” value was 79.1 % of control.
Regarding `COc1cccc(NC(=O)n2ccc(-c3ccc(-c4ccccc4)cc3)n2)c1` [Compound 22, 3-(biphenyl-4-yl)-N-(3-methoxyphenyl)-1H-pyrazole-1-carboxamide], the “In Vitro FAAH activity, 10 uM” value is 95.8 % of control.
Still for that read-out and setting: the value for `COc1ccc(NC(=O)n2ccc(-c3ccc(-c4ccccc4)cc3)n2)cc1` [Compound 23, 3-(biphenyl-4-yl)-N-(4-methoxyphenyl)-1H-pyrazole-1-carboxamide] was 93 % of control.
For the compound `CN(C(=O)n1ccc(-c2cccnc2)n1)c1ccccc1` [Compound 24, N-methyl-N-phenyl-3-(pyridin-3-yl)-1H-pyrazole-1-carboxamide], the “In Vitro FAAH activity, 10 uM” value is given as 22.9 % of control.
Take `CN(C(=O)n1ccc(-c2ccc(-c3ccccc3)cc2)n1)c1ccccc1` [Compound 25, 3-(biphenyl-4-yl)-N-methyl-N-phenyl-1H-pyrazole-1-carboxamide]: the “In Vitro FAAH activity, 10 uM” value is on record as 99 % of control.
Take `CN(C(=O)n1ccnc1-c1ccccc1)c1ccccc1` [Compound 26, N-methyl-N,2-diphenyl-1H-imidazole-1-carboxamide]: the “In Vitro FAAH activity, 10 uM” value is 92.6 % of control.
Regarding `CN(C(=O)n1cnc(-c2ccc(Cl)cc2)c1)c1ccccc1` [Compound 27, 4-(4-chlorophenyl)-N-methyl-N-phenyl-1H-imidazole-1-carboxamide], the “In Vitro FAAH activity, 100 nM” value was 71.4 % of control and the “In Vitro FAAH activity, 10 uM” value is listed as 0.2 % of control.
In the case of `COc1ccc(-c2cn(C(=O)N(C)c3ccccc3)cn2)cc1` [Compound 28, 4-(4-methoxyphenyl)-N-methyl-N-phenyl-1H-imidazole-1-carboxamide], the “In Vitro FAAH activity, 100 nM” value was 85.1 % of control and the “In Vitro FAAH activity, 10 uM” value is listed as 0.7 % of control.
With `CN(C(=O)n1cnc(-c2ccccc2F)c1)c1ccccc1` [Compound 30, 4-(2-fluorophenyl)-N-methyl-N-phenyl-1H-imidazole-1-carboxamide], the “In Vitro FAAH activity, 100 nM” value is recorded as 72.5 % of control and the “In Vitro FAAH activity, 10 uM” value is reported as 0.1 % of control.
Regarding `COc1cccc(-c2cn(C(=O)N(C)c3ccccc3)cn2)c1` [Compound 31, 4-(3-methoxyphenyl)-N-methyl-N-phenyl-1H-imidazole-1-carboxamide], the “In Vitro FAAH activity, 100 nM” value is reported as 69 % of control and the “In Vitro FAAH activity, 10 uM” value is on record as 0 % of control.
As for `CN(C(=O)n1cnc(-c2ccc(-c3ccccc3)cc2)c1)c1ccccc1` [Compound 35, 4-(biphenyl-4-yl)-N-methyl-N-phenyl-1H-imidazole-1-carboxamide], the “In Vitro FAAH activity, 10 uM” value was 103.1 % of control.
Consider `COc1ccc(-c2cn(C(=O)N(C)c3ccc(F)cc3)cn2)cc1` [Compound 36, N-(4-fluorophenyl)-4-(4-methoxyphenyl)-N-methyl-1H-imidazole-1-carboxamide], for which the “In Vitro FAAH activity, 10 uM” value is on record as 5 % of control.
For `O=C(N1CCCc2ccccc21)n1cnc(-c2ccccc2)c1` [Compound 37, (3,4-dihydroquinolin-1(2H)-yl)(4-phenyl-1H-imidazol-1-yl)methanone], the “In Vitro FAAH activity, 10 uM” value is 51.7 % of control.
Turning to `CN(C(=O)n1cnc(-c2ccc(O)cc2)c1)c1ccccc1` [Compound 38, 4-(4-hydroxyphenyl)-N-methyl-N-phenyl-1H-imidazole-1-carboxamide], the “In Vitro FAAH activity, 100 nM” value is 83.9 % of control and the “In Vitro FAAH activity, 10 uM” value was 0 % of control.
`CN(C(=O)n1cnc(-c2ccc(Cl)cc2)c1)c1ccc(F)cc1` [Compound 43, 4-(4-chlorophenyl)-N-(4-fluorophenyl)-N-methyl-1H-imidazole-1-carboxamide]: the “In Vitro FAAH activity, 100 nM” value is given as 88 % of control and the “In Vitro FAAH activity, 10 uM” value is reported as 0.1 % of control.
